Reference: patent US20250186450A1, “COMBINATION THERAPY COMPRISING DGK INHIBITORS and PD-1/PD-L1 INHIBITORS” (Incyte Corporation, priority 2023, published 2025)
“Also recorded” adds a separate entry of the source.

Experiments:
[1] = tested on: CT26 syngeneic tumor model; experiment: CT26 syngeneic tumor model, DGK inhibitor plus anti-PD-1 (RMP1-14); type: in vivo, Balb/C mice; details: for tumor growth delay vs control vehicle group: Compound 1 alone
Method: The in vivo effect of combining Compound 1 plus anti-PD-1 (RMP1-14, Bio X Cell) was assessed in the CT26 (CRL-2638, ATCC, Manassas, VA) syngeneic tumor model (see FIG. 1) in 6 to 8 weeks old Balb/C mice (Jackson laboratories). Compound 1 was suspended in 5% N,N-dimethylacetamide (DMAC)+50 mM Citrate buffer in 0.5% methyl cellulose for oral administration and RMP1-14 was suspended in saline for intraperitoneal administration. Briefly, the left flank of the mice was shaved the day prior to subcutaneous inoculation with 1×10^6 CT26 cells suspended in PBS. On day 7, tumor dimensions were measured by Vernier calipers, and volume estimated by the formula Volume=[L (long dimension)×W^2 (short dimension)]/2. Mice were randomized into 6 groups of 10 mice of approximate mean volume (˜150 mm^3). Tumors were measured 3 times per week for the duration of the study. Starting day 7, mice were dosed with (i) vehicle; (ii) 250 μg/mouse of RMP1-14; (iii) 10 mg/kg of Compound 1; (iv) 3 mg/kg of Compound 1; (v) 10 mg/kg of Compound 1 and 250 μg/mouse of RMP1-14; or (vi) 3 mg/kg of Compound 1 and 250 μg/mouse of RMP1-14. Compound 1 was administered orally once daily (QD) for 14 days, while RMP1-14 was dosed every 5 days (for a total of 3 doses).
In a separate experiment, mice were randomized on day 7 into 10 groups of 10 mice of approximate mean volume (˜120 mm^3). Tumors were measured 3 times a week for the duration of the efficacy study (day 22). Starting day 7, mice were dosed with (i) vehicle; (ii) 250 μg/mouse of RMP1-14; (iii) 10 mg/kg of Compound 1 QD; (iv) 10 mg/kg of Compound 1 Q2D; (v) 3 mg/kg of Compound 1 QD; (vi) 3 mg/kg of Compound 1 […]; (vii) 10 mg/kg of Compound 1 QD and 250 μg/mouse of RMP1-14; (viii) 10 mg/kg of Compound 1 Q2D and 250 μg/mouse of RMP1-14; (ix) 3 mg/kg of Compound 1 QD and 250 μg/mouse of RMP1-14; or (x) 3 mg/kg of Compound 1 Q2D and 250 μg/mouse of RMP1-14. Compound 1 was administered orally either daily (QD) or every other day (Q2D) for 10 days, while RMP1-14 was dosed every 5 days (for a total of 2 doses).
The in vivo effect of combining Compound 2 plus anti-PD-1 (RMP1-14, Bio X Cell) was assessed in the CT26 (CRL-2638, ATCC, Manassas, VA) syngeneic tumor model (see FIG. 6A-6B) in 6 to 8 weeks old Balb/C mice (Jackson laboratories). Compound 2 was suspended in 5% N,N-dimethylacetamide (DMAC)+50 mM Citrate buffer in 0.5% methyl cellulose for oral administration and RMP1-14 was suspended in saline for intraperitoneal administration. Briefly, the left flank of the mice was shaved the day prior to subcutaneous inoculation with 1×10^6 CT26 cells suspended in PBS. On day 7, tumor dimensions were measured by Vernier calipers, and volume estimated by the formula Volume=[L (long dimension)×W^2 (short dimension)]/2. Mice were randomized into 6 groups of 10 mice of approximate mean volume (˜130 mm^3). Tumors were measured 3 times per week for the duration of the study. Starting day 7, mice were dosed with (i) vehicle; (ii) 250 μg/mouse of RMP1-14 (Anti-PD-1); (iii) 1.5 mg/kg of Compound 2 QD; (iv) 1.5 mg/kg of Compound 2 QD and 250 μg/mouse of RMP1-14; (v) 1.5 mg/kg of Compound 2 Q2D; (vi) 1.5 mg/kg of Compound 2 Q2D and 250 μg/mouse of RMP1-14; (vii) 1.5 mg/kg of Compound 2 Q3D; or (viii) 1.5 mg/kg of Compound 2 Q3D and 250 μg/mouse of RMP1-14.

[2] = tested on: CT26 syngeneic tumors overexpressing human PD-L1 (Clone299); experiment: Human PD-1/human PD-L1 dual knock-in model; type: in vivo, human PD-1/human PD-L1 dual Knock-In mice
Method: The in vivo effect of combining Compound 1 plus (R)-1-((7-cyano-2-(3′-(2-(difluoromethyl)-7-((3-hydroxypyrrolidin-1-yl)methyl)pyrido[3,2-d]pyrimidin-4-ylamino)-2,2′-dimethylbiphenyl-3-yl)benzo[d]oxazol-5-yl)methyl)piperidine-4-carboxylic acid (i.e., Compound A) was assessed in 8 to 10 weeks old human PD-1/human PD-L1 dual Knock-In mice (GemPharmatech, Shanghai, China) using CT26 syngeneic tumors overexpressing human PD-L1 (Clone299, Synthego, California). Both Compound 1 and Compound A were suspended in 5% N,N-dimethylacetamide (DMAC)+50 mM Citrate buffer in 0.5% methyl cellulose for oral administration. […] On day 17, tumor dimensions were measured by Vernier calipers, and volume estimated by the formula Volume=[L (long dimension)×W^2 (short dimension)]/2. […] Tumors were measured 3 times per week for the duration of the study. […]
The in vivo effect of Compound 2 plus Anti-PD-L1 (atezolizumab) was assessed in 8 to 10 weeks old human PD-1/human PD-L1 dual Knock-In mice (GemPharmatech, Shanghai, China) using CT26 syngeneic tumors overexpressing human PD-L1 (Clone299, Synthego, California). […] On day 12, tumor dimensions were measured by Vernier calipers, and volume estimated by the formula Volume=[L (long dimension)×W^2 (short dimension)]/2. […] Tumors were measured 3 times per week for the duration of the study. […]

SMILES | TGI, combined with anti-PD-1 mAb ([1]; 1.5 mg/kg Compound 2 Q2D and 250 μg/mouse RMP1-14, FIGS. 6A-6B) | TGI, combination groups vs respective single-arm control group ([1]; 1.5 mg/kg Compound 2 QD, Q2D or Q3D and 250 μg/mouse RMP1-14) | TGI vs vehicle control group ([1]; Compound 2 alone, 1.5 mg/kg QD, Q2D or Q3D, FIG. 6B) | TGI, combined with Anti-PD-L1 mAb, vs Anti-PD-L1 mAb control group ([2]; 1.5 mg/kg Compound 2 Q2D and Anti-PD-L1 (atezolizumab), FIG. 8) | combination effect on tumor growth delay (Bliss Independence analysis) ([1]; 10 mg/kg or 3 mg/kg Compound 1 QD for 14 days with 250 μg RMP1-14 every 5 days, vs respective controls, FIG. 1) | combination effect on tumor growth delay (Bliss Independence analysis) ([1]; 10 mg/kg or 3 mg/kg Compound 1 QD or Q2D for 10 days with 250 μg RMP1-14, vs respective controls, FIG. 2) | tumor growth delay vs control vehicle group ([1]; 10 mg/kg orally QD for 14 days, FIG. 1) | tumor growth delay vs control vehicle group ([1]; 10 and 3 mg/kg QD for 10 days, separate experiment, FIG. 2) | tumor volume vs RMP1-14 alone (Kruskal-Wallis Multiple Comparison Test) ([1]; all groups tested against group (ii) 250 μg/mouse RMP1-14, FIG. 2) | combination effect on tumor growth delay (Bliss Independence analysis) ([2]; 10 mg/kg Compound 1 QD with 25 mg/kg Compound A BID for 15 days, vs respective controls, FIG. 4)
Cc1nc2c(N3C[C@@H](C)N(C(c4ccc(C(F)(F)F)cc4)C4CC(F)(F)C4)C[C@@H]3C)nc3nncn3c2n1C[C@@H]1CCCO1 (single isomer, unassigned) [Example 2] | significant TGI | statistically significant | None of the single treatment arm groups dosed with 1.5 mg/kg Compound 2 provided statistically significant TGI | statistically significant; also recorded: significant TGI | – | – | – | – | – | –
C[C@@H]1CN(c2nc3nncn3c3c2nnn3C[C@H]2CCCO2)[C@@H](C)CN1C(c1ccc(F)cc1)c1ccc(F)cc1 [Example 1, 4-((2S,5R)-4-(Bis(4-fluorophenyl)methyl)-2,5-dimethylpiperazin-1-yl)-1-(((R)-tetrahydrofuran-2-yl)methyl)-1H-[1,2,3]triazolo[4,5-e][1,2,4]triazolo[4,3-a]pyrimidine] | – | – | – | – | synergistic effect in tumor growth delay | synergistic effect in tumor growth delay | therapeutic effect in delaying tumor growth | therapeutic effect in delaying tumor growth | statistical significance | synergistic effect in tumor growth delay
